Assay results from patent US20030022921A1, “Stable pharmaceutical formulation comprising torsemide modification II” (priority 2001, published 2003).
Blank lines part the entries; values can stand above or below the molecule they belong to.

Assay: Polymorphic content by XRPD in bulk torsemide modification II on storage
Format: physicochemical
Set-up: key to Polymorphic form detected (I or II): “I” is Torsemide Modification I; “II” is Torsemide Modification II
Conditions: for Polymorphic form detected (I or II) / Polymorph Content / Polymorph Content: amount of Torsemide Modification I: bulk
Excerpt: 1. The present procedure is used for the detection and quantitative determination of the presence of torsemide modification I in tablets wherein the active ingredient is high purity torsemide modification II. The present procedure is also used for the detection and quantitative determination of torsemide modification I in bulk high purity torsemide modification II, which is to be used as the active ingredient in tablets. The present method is based on the unique x-ray powder diffraction pattern of torsemide modification I that is characterized by a strong peak at two-theta 5.7±0.2°, the presence of which indicates the presence of torsemide modification I in a sample of high purity torsemide modification II. 2.1 Instrument: Philips x-ray powder diffractometer. Goniometer model PW 1050/70, Cu-tube, curved graphite monochromator. 2.2 Sample holder: A standard aluminum sample holder with a rectangular cavity 20*15*0.3 mm inside it. Scanning range: 2θ=4° to at least 22° Step: 0.05° Step duration: 0.5 4.1 Gently grind a small amount of sample powder in an agate mortar with the pestle. 4.2 Fill the rectangular cavity on the sample holder with the powder.

[1] = first storage column (condition not given), 1 week
[2] = storage condition not given, 1 month
[3] = storage condition not given, 2 months
[4] = storage condition not given, 2 weeks

Polymorphic form detected (I or II) (storage 40° C., 75% RH, 1 month): II
Polymorphic form detected (I or II) (storage 40° C., 75% RH, 2 months): II
Polymorphic form detected (I or II) (storage 40° C., 75% RH, 2 weeks): II
Polymorphic form detected (I or II) (storage 40° C., 75% RH, 3 months): II
Polymorphic form detected (I or II) (storage 40° C., 75% RH, 4 months): II
Polymorphic form detected (I or II) (storage 55° C., 1 month): II
Polymorphic form detected (I or II) (storage 55° C., 1 week): II
Polymorphic form detected (I or II) (storage 55° C., 2 months): II
Polymorphic form detected (I or II) (storage 55° C., 2 weeks): II
Polymorphic form detected (I or II) (storage 55° C., 3 months): II
Polymorphic form detected (I or II) (storage 55° C., 4 months): II
SMILES: Cc1cccc(Nc2ccncc2S(=O)(=O)NC(=O)NC(C)C)c1 [Bulk Lot No. 851700100, 1-Isopropyl-3-[(4-m-toluidino-3-pyridyl)-sulfonyl]urea]
Rearrangement into different polymorphic forms of torsemide (storage at 40° C. at 75% relative humidity for 3 months, tablet formulations or bulk active ingredient): does not undergo any significant rearrangement
Polymorphic stability during storage under stress conditions (listed as high purity torsemide modification II): stable during storage under stress conditions for at least 3 months

Polymorph Content (first storage column (condition not given), 1 month): I + II
Polymorph Content [1]: II >> I
Polymorph Content: amount of Torsemide Modification I [1]: ~0.4%
Polymorph Content (first storage column (condition not given), 2 months): I + II
Polymorph Content (first storage column (condition not given), 2 weeks): I + II
Polymorph Content (first storage column (condition not given), 3 months): I > II
Polymorph Content (first storage column (condition not given), 4 months): I + II
Polymorph Content [2]: II >> I
Polymorph Content: amount of Torsemide Modification I [2]: ~1%
Polymorph Content [3]: II >> I
Polymorph Content: amount of Torsemide Modification I [3]: ~6%
Polymorph Content [4]: II >> I
Polymorph Content: amount of Torsemide Modification I [4]: ~0.5%
Polymorph Content (storage condition not given, 3 months): I + II
Polymorph Content (storage condition not given, 4 months): I + II
Polymorph Content (t = 0): II >>> I
Polymorph Content: amount of Torsemide Modification I (t = 0): < 0.3%
SMILES: Cc1cccc(Nc2ccncc2S(=O)(=O)NC(=O)NC(C)C)c1 [Bulk No. 851700200, 1-Isopropyl-3-[(4-m-toluidino-3-pyridyl)-sulfonyl]urea]
Polymorphic stability during storage under stress conditions (listed as torsemide modification II that contains trace amounts of torsemide modification): not stable during storage under stress condition for at least 3 months
